Data as given in publication PMC11406360, “The enzymatic oxygen sensor cysteamine dioxygenase binds its protein substrates through their N-termini” (The Journal of Biological Chemistry, 2024).
Where a chain is given by its changes, count along the chain named. Numbers in names are those of the source. Where a SMILES comes first, the peptide text is derived from it.

B1: RGS5^FL-C2S: full-length RGS5 C2S mutant (protein)
chain: MSKGLAALPHSCLERAKEIKIKLGILLQKPDSVGDLVIPYNEKPEKPAKTQKTSLDEALQWRDSLDKLLQNNYGLASFKSFLKSEFSEENLEFWIACEDYKKIKSPAKMAEKAKQIYEEFIQTEAPKEVNIDHFTKDITMKNLVEPSLSSFDMAQKRIHALMEKDSLPRFVRSEFYQELIK
modifications: left off: His tag, N-terminal, cleaved | SUMO, N-terminal, cleaved
notes: full-length RGS5 C2S mutant

What was measured:
ADO-Zn^2+ [1] = target: T1, ADO-Zn^2+ (Homo sapiens, UniProt Q96SZ5); assay: LC-MS turnover time course with zinc-substituted ADO; type: biochemical; settings: 100 μM peptide, 0.1 μM enzyme, 37 °C, attributed to residual iron bound ADO
T1 construct: Full-length human ADO (UniProt ID: Q96SZ5) was cloned; made in house; host or cells: Rosetta2(DE3) Escherichia coli, M9 minimal media with 0.2 mM Co2+ or Zn2+
T1 sequence (Q96SZ5 1-270): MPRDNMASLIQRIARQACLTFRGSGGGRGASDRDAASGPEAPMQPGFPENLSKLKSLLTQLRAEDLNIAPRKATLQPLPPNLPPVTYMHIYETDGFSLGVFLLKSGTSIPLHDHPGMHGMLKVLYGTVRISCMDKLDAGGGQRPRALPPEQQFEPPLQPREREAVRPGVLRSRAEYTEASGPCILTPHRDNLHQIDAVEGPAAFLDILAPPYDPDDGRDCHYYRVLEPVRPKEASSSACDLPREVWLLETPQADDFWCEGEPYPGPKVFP
Experimental: (§1) The catalytic functionality of the metal substituted ADO proteins was subsequently assessed by LC-MS using RGS5 peptide as a representative protein substrate. […] However, product formation was observed following long incubation times (≥30 min), with ∼80% conversion detected overnight, which is likely attributed to the activity of residual iron bound ADO (Fig. 2, E and H). Together, these findings indicate that different transition metals can substitute iron to facilitate protein substrate binding but not catalysis.
(§2) The enzymatic activity of ADO was examined by incubating between 0 to 1000 μM peptide and protein substrates with 0.05 to 0.1 μM ADO in a bench-top thermomixer at 37 °C for 45 s. Otherwise stated, the reaction buffer contained 50 mM Tris pH 7.5, 50 mM NaCl, and 5 mM TCEP. […]
(§3) Peptide and protein samples were injected onto a Chromolith RP-18 Endcapped HPLC Columns (100–2 mm; Merck) and Discovery BIO Wide Pore C5 HPLC Column (Supelco), respectively, heated to 40 °C and eluted at 0.3 ml/min using a gradient of 95% deionized water supplemented with 0.1% (v/v) formic acid to 95% acetonitrile. Oxidation was monitored by an ultra high-performance liquid chromatography MS using ExionLC AD (Sciex) and SelexION (Sciex) mass spectrometer operated in a positive electrospray TOF (+ESI-TOF) mode. […]

[2] = target: T2, ADO (2-aminoethanethiol dioxygenase), iron-bound wild type (Homo sapiens, UniProt Q96SZ5); assay: SPR binding of peptide/protein substrates to immobilised ADO; settings: for Kd: SPR steady state, 1:1 binding model, biotinylated ADO on Biotin CAP chip, 4 °C, 20 mM Hepes pH 7.5, 500 mM NaCl, 10 mM DTT, 0.1% tween-20, geometric mean (± SD) of minimum three independent measurements, read-out: Equilibrium dissociation constant KD
T2 construct: Full-length human ADO (UniProt ID: Q96SZ5) was cloned; made in house; host or cells: Rosetta2(DE3) Escherichia coli
T2 sequence (Q96SZ5 1-270): T1 sequence (Q96SZ5 1-270)
Description: ADO catalyzes the O2-dependent sulfinylation of Nt-cys residues, which reportedly bind to the iron cofactor in a monodentate arrangement through ligation of the thiol group ([14], [15]). To test the importance of Nt-cys modifications and substitutions on ADO association, a SPR assay was established. […] Data collected under steady state conditions is presented in the main text and kinetic constants are provided in the Tables S1–S8 (alongside steady state measurements). All measurements were collected at 4 °C to minimize enzyme activity.
(§4) SPR measurements were made using a Biacore T200 (Cytiva) instrument and data were analyzed using the Biacore Insight Evaluation Software (Cytiva; https://www.cytivalifesciences.com/en/us/shop/protein-analysis/spr-label-free-analysis/spr-software-and-extensions/biacore-insight-evaluation-software-p-23528). Biotinylated-ADO was immobilized on a Biotin CAP chip (Cytiva) with a target density of ∼2500 to 3000 RU and peptide/protein substrates were injected over the chip. […] A buffer comprising 20 mM Hepes pH 7.5, 500 mM NaCl, 10 mM DTT, and 0.1% (v/v) tween-20 was used as the running buffer at a flow rate of 50 μl/min.
For metal-chelation experiments, a mixture of 10 mM 1, 10-phenanthroline and 100 mM EDTA (pH 8) was injected onto the chip using 10 × 60 s injections at a 100 μl/min flow rate. […] The instrument and chip were primed into buffer excluding reducing agents before conducting metal chelation and iron reconstitution.

ADO-Co^2+ [3] = target: T3, ADO-Co^2+ (Homo sapiens, UniProt Q96SZ5); assay: LC-MS turnover time course with cobalt-substituted ADO; type: biochemical; settings: 100 μM peptide, 0.1 μM enzyme, 37 °C, attributed to residual iron bound ADO
T3 construct: Full-length human ADO (UniProt ID: Q96SZ5) was cloned; made in house; host or cells: Rosetta2(DE3) Escherichia coli, M9 minimal media with 0.2 mM Co2+ or Zn2+
T3 sequence (Q96SZ5 1-270): T1 sequence (Q96SZ5 1-270)
Experimental: as §1, §2, §3

ADO-Zn^2+ [4] = target: T1, ADO-Zn^2+; assay: SPR binding to zinc-substituted ADO; settings: SPR steady state, 1:1 model, 4 °C; geometric mean of minimum three independent measurements
Experimental: (§5) To study if different metals can compensate for the inherent iron cofactor, zinc (Zn^2+) and cobalt (Co^2+) substituted ADO was produced through minimal media expression, validated by ICP-MS, and analyzed for binding by SPR (Fig. 2E).
as §4

ADO-H193D [5] = target: T4, ADO-H193D (Homo sapiens, UniProt Q96SZ5, H193D); assay: SPR binding to metal-deficient ADO-H193D mutant; settings: 4 °C
T4 construct: Full-length human ADO (UniProt ID: Q96SZ5) was cloned; made in house; host or cells: Rosetta2(DE3) Escherichia coli
T4 sequence (Q96SZ5 1-270 H193D): T1 sequence (Q96SZ5 1-270) with H193D
Description: To further validate the importance of metal coordination in protein substrate binding, an ADO-H193D mutant, which is known to impair iron retention, was generated (Fig. S1B). A significant reduction in metal occupancy was confirmed by ICP-MS (Fig. 2C). This correlated with a low SPR-binding response of approximately ∼2 to 3 RU, indicating a reduced population of substrate-binding ADO on the chip relative to the total amount of immobilized ADO (Figs. 2D and S5D). Furthermore, the calculated Kᴅ values with native RGS5 and IL32 peptides were ∼13-fold and ∼77-fold weaker, respectively, than the interactions with WT ADO (Table S3).
as §4

ADO [6] = target: T5, ADO (Homo sapiens, UniProt Q96SZ5); assay: LC-MS enzyme activity assay (Nt-cys sulfinylation by ADO); type: biochemical; settings: 100 μM peptide, 0.1 μM ADO, 37 °C, 45 s and 1 h incubations
T5 construct: Full-length human ADO (UniProt ID: Q96SZ5) was cloned; made in house; host or cells: Rosetta2(DE3) Escherichia coli
T5 sequence (Q96SZ5 1-270): T1 sequence (Q96SZ5 1-270)
Experimental: […] Otherwise stated, the reaction buffer contained 50 mM Tris pH 7.5, 50 mM NaCl, and 5 mM TCEP. The reactions were quenched by mixing the sample 1:10 (peptide) or 1:5 (protein) with 1% formic acid (v/v).
Peptide and protein samples were injected onto a Chromolith RP-18 Endcapped HPLC Columns (100–2 mm; Merck) and Discovery BIO Wide Pore C5 HPLC Column (Supelco), respectively, heated to 40 °C and eluted at 0.3 ml/min using a gradient of 95% deionized water supplemented with 0.1% (v/v) formic acid to 95% acetonitrile. Oxidation was monitored by an ultra high-performance liquid chromatography MS using ExionLC AD (Sciex) and SelexION (Sciex) mass spectrometer operated in a positive electrospray TOF (+ESI-TOF) mode. Instrument parameters, data acquisition and data processing were controlled by Analyst software (Sciex; https://sciex.com/products/software/analyst-software). The peptide data processing was performed using Skyline software (MacCoss Lab Software; https://skyline.ms/project/home/software/Skyline/begin.view) ([38]). All figures and parameters were generated using GraphPad Prism 9 (GraphPad; https://www.graphpad.com/features).

ADO-Co^2+ [7] = target: T3, ADO-Co^2+; assay: SPR binding (single cycle kinetics) to cobalt-substituted ADO; settings: 4 °C, significantly slower off-rate
Experimental: as §5, §4

ADO [8] = target: T5, ADO; assay: 15N-HSQC NMR titration with ADO; type: binding; settings: 50 μM 15N-labelled protein, 20 mM Hepes pH 7.5, 150 mM NaCl, 10 mM DTT, ADO up to 800 μM
Experimental: (§6) For titrations with ADO, ^15N-labeled RGS5^FL proteins were prepared at 50 μM, in buffer containing 20 mM Hepes pH 7.5, 150 mM NaCl, 10 mM DTT, and 10% (v/v) D2O. ^15N-HSQC spectra were collected before and after the addition of ADO to the labeled RGS5^FL samples. Intensity-based CSP plots were produced by calculating peak height values from the ^15N-HSQCs before and after addition of ADO and normalizing against the heights of ∼5 peaks from the HSQC that remained invariant throughout the titration.

ADO-H193D [9] = target: T4, ADO-H193D; assay: 15N-HSQC NMR titration with ADO-H193D; type: binding; settings: 50 μM 15N-labelled protein, 150 μM ADO-H193D
Experimental: as §6

Molecule | Conversion by ADO-Zn^2+ overnight (ADO-Zn^2+ [1]) | Kd [2] | Conversion by ADO-Co^2+ overnight (ADO-Co^2+ [3]) | Kd (ADO-Zn^2+ [4]) | Fold weaker KD with ADO-H193D than with WT ADO (ADO-H193D [5]) | Oxidation (sulfinylation, +32 Da) by ADO (ADO [6]) | Maximum response (Rmax) ([2]; SPR, ADO prior to chelation treatment) | Loss in Rmax following chelation of the immobilized ADO-bound metal ([2]; SPR, after 10 mM 1,10-phenanthroline and 100 mM EDTA) | Fold increase in binding affinity with ADO-Co^2+ relative to native ADO (ADO-Co^2+ [7]) | 15N-HSQC chemical shift perturbations on titration of ADO (ADO [8]) | 15N-HSQC interaction on titration of ADO-H193D (ADO-H193D [9])
CC(C)C[C@H](NC(=O)CNC(=O)[C@H](CCCCN)NC(=O)[C@@H](N)CS)C(=O)N[C@@H](C)C(=O)N[C@@H](C)C(=O)N[C@@H](CC(C)C)C(=O)N1CCC[C@H]1C(=O)N[C@@H](Cc1c[nH]cn1)C(=O)N[C@@H](CO)C(=O)N[C@@H](CS)C(=O)N[C@@H](CC(C)C)C(=O)N[C@@H](CCC(=O)O)C(=O)N[C@@H](CCCNC(=N)N)C(N)=O [RGS5] (H-CKGLAALPHSCLER-NH2) | ~80% | 290 ± 45 nM | ~80% | 250 ± 370 nM | – | – | – | – | – | – | –
H-CFPKVLSDDMKKLK-NH2 (C-terminus assumed) [IL32] | – | 270 ± 5 nM | – | – | ~77 fold | could be oxidized by ADO | ~20 RU | ~80% | ~10 fold | – | –
B1 | – | – | – | – | – | – | – | – | – | induced CSPs in the portion of the ^15N-HSQC corresponding to the disordered N terminus of RGS5 | no interaction was observed
